The results in this text go back to US11952431B2, “Neutrophil-binding peptides” (YISSUM RESEARCH DEVELOPMENT COMPANY OF THE HEBREW …, priority 2020, dated 2024).

Series [1] relates to neutrophils. Briefly: Effect of KFP-tetramer / 16-KFP on neutrophil activation (ROS production). The class given is cell-based, human. The text has this: (§1) A biotinylated KFP-tetramer multiantigen (designated 16-KFP) was generated in the same manner as the 16-LQI. In whole blood, 16-KFP bound ˜80% of human neutorophils and less than 10% of non-neutrophil WBC (FIG. 15A).
For series [2], the target named is T1, CD177 (Homo sapiens, UniProt Q8N6Q3).
T1 construct: endogenous in cells; host or cells: human neutrophils from healthy donors, COPD patients and lung cancer patients
T1 sequence (Q8N6Q3 22-408): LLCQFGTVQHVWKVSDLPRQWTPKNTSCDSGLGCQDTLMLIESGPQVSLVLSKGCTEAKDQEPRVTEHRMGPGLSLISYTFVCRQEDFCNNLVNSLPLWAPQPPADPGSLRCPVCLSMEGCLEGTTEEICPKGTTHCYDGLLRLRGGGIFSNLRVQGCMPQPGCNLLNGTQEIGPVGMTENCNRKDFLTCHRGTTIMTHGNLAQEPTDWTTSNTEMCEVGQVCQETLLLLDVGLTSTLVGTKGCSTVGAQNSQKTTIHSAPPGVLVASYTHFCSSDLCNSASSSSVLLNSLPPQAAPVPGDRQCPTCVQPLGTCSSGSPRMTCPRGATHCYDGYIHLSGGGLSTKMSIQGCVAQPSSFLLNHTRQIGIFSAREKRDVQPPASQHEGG
Briefly: Correlation of CD177 expression and KFP-tetramer binding in donors. Particulars: healthy donors, patients with COPD and lung cancer patients. The text has this:
FIGS. 22A-C: (22A) Bar graph of 16-KFP binding and CD177 expression of neutrophils of healthy donors (2, 6, 10), COPD patients (11, 12) and lung cancer patients (13). (22B) Line graph of correlation between CD177 expression and 16-KFP binding in different donors. (22C) Bare graph of binding of 16-KFP to neutrophils with increasing amounts of CD177 blocking antibody.
(§2) Similarly, the human CD177 was identified as a binding-partner of the peptides binding to human neutrophils (SEQ ID NOs: 1-8). […] Still, the extent of KFP-tetramer binding and CD177 levels fit well within the correlation plot and support the role of CD177 in mediating the binding of the KFP-tetramer to neutrophils (FIG. 22B).

Series [3] concerns neutrophils. Briefly: Effect of KFP-tetramer / 16-KFP on neutrophil chemotaxis. The class given is cell-based, human.
Description: as §1

Series [4] deals with non-neutrophil WBC. Briefly: 16-KFP binding in whole blood. Further details: species or system human. Particulars: healthy donor.
Description: as §1

The subject of series [5] is human neutrophils. Briefly: 16-KFP binding in whole blood. As to conditions: healthy donor.
Description: as §1

Series [6] has as its system murine neutrophils (HDNs from 4T1-tumor bearing mice). Briefly: Titration of binding to purified HDNs, flow cytometry. On the set-up: species or system mouse. Particulars: tetramer-SA complex of control peptide. As to the method:
Analysis was performed by flow cytometry.
In general terms: In flow cytometry, cells or beads pass a laser one at a time.

Series [7] concerns the target T1, CD177. Briefly: Pull-down with KFP-tetramer as bait, mass spectrometry. The class given is binding.
Description: as §2

The subject of series [8] is neutrophils. Briefly: Effect of KFP-tetramer / 16-KFP on neutrophil viability (microscopy, flow cytometry). The class given is cell-based, human.

As to “(KFPDLDSRRLPHMSL (SEQ ID NO: 1) Doa-Doa-C)4-(Mpa)-4-Lys2-Lys-beta-Ala-Lys(Biotin)-beta-Ala-OH [KFP tetramer]”, the “effect on neutrophil activation (ROS production, FIG. 15B)” value in series [1] is given as “no effect”. Also, the “correlation between CD177 expression and binding to neutrophils” value in series [2] is “strong positive correlation”. For the same substance, in series [3] (FIG. 15E), the chemoattraction of neutrophils result is recorded as “not chemoattractive”. In addition, in series [3] (FIG. 15F), the “effect on neutrophil attraction to CXCL2” value is listed as “no effect”.
Regarding “16-KFP: biotinylated KFP-tetramer multiantigen generated in the same manner as 16-LQI; tetramer-SA complex used as control on murine neutrophils [Peptide 16-KFP]”, the “non-neutrophil WBC bound” value in series [4] is “less than 10%”. Moreover, in series [1], the “effect on neutrophil activation (ROS production, FIG. 15B)” value is “no significant effect”. Besides, the human neutrophils bound in series [5] is reported as approximately 80%. Also, in series [6], the “binding to murine neutrophils” value is given as “did not show binding”. In series [3], the “effect on chemotactic properties” value is “no significant effect”. The binding partner identified entry in series [7] was “CD177 was identified as the binding partner”. Also, in series [8], the “effect on neutrophil viability” value is “no significant effect”.
